Values belong to the compound of their own block, whether it stands above or below them.
What was measured:
[1] = Solubility in DMSO, methanol and acetonitrile; assay type: physicochemical; settings: methanol, acetonitrile, organic solvent or mixture, read-out: solubility class (asterisk) in DMSO, methanol, and acetonitrile
HepG2 cell fractions = test: Metabolism of phenyl ketone 5c in HepG2 cell fractions; assay type: in vitro ADME, human; settings: 10 μM 5c
Description: FIG. 17. Reactivity of HepG2 cell fractions with 5c. Assays were performed in 50 mM Tris-HCl buffer containing 1 mM NADPH, 10 μM 5c and 80 μg protein/mL, incubated for 60 minutes. Legend: (+) without flufenamic acid; (−) with 100 μM flufenamic acid; HepG2=hepatoma cell line.
Selectivity of Phenyl Ketone Probe 5c in Cellular Lysates: The selectivity of phenyl ketone probe 5c in human hepatoma cells (HepG2), which are known to express all four AKR1C isozymes in the cytoplasm, was tested. […] An issue may be non-selective reduction of probes with microsomes, which are organelles enriched with redox enzymes. Following one hour incubation of probe 5c with both cytosolic and microsomal fractions prepared from HepG2 cells, the resulting mixtures were analyzed fluorimetrically. […] Moreover, reduction by the cytoplasmic extract was suppressed by flufenamic acid, a known inhibitor of the AKR1C isozymes (Penning, T. M.; Talalay, P. Proc Natl Acad Sci USA 1983, 4504-4508).
HepG2 cells were obtained from and grown in the Penning laboratory (University of Pennsylvania School of Medicine). Cells were maintained at 37° C. and 5% CO2 containing Eagle's minimal essential medium supplemented with 100 U/mL penicillin, 100 μg/mL streptomycin, 2 mM L-glutamine, and 10 % heat-inactivated fetal bovine serum.
To measure metabolism of 5c in HepG2 cell fractions, the cells were harvested and fractionized as follows. HepG2 cells were grown to confluency on eight 15×100 mm dishes, whereupon 500 μL of ice cold Tris-HCl-sucrose buffer (50 mM Tris-HCl at pH 7.4, 250 mM sucrose, 1 mM EDTA, and 1 mM 2-mercaptoethanol) was added to each dish. Cells were scratched off and taken up directly into an ice cold potter. These cells were then homogenized and sonicated (10 one-second 10 W bursts, four times on ice). […]
Protein concentrations for whole or fractionized HepG2 cells were determined by standard Bradford assays (Bradford, M. M.; Anal. Biochem. 1976, 72, 248). […] Reactions were initiated with 80 μg of protein per 1 mL assay and monitored fluorimetrically for up to 2 hours. […]

[2] = target: T1, Pseudomonas testosteroni 3α-hydroxysteroid dehydrogenase (Comamonas testosteroni, UniProt P80702); test: Enzymatic screening of probes 1-7 against a panel of oxidoreductases; assay type: biochemical; settings: 12 hour incubation, 30-50 μM substrate, pH 7, 250 μM NAD(P)H
T1 construct: purchased Sigma (St. Louis, Mo.) Lot Number 053K8624 (catalogue number not given)
T1 sequence (P80702 whole entry): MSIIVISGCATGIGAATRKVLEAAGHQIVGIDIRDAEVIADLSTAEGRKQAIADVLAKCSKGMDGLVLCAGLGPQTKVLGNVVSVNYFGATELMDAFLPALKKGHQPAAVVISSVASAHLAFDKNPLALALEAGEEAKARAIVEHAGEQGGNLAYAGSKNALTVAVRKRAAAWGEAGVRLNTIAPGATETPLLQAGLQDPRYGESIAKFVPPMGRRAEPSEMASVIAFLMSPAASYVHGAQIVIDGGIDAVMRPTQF
Description: (§1) FIG. 4. Screening of probes 1-7 against a panel of oxidoreductases Percentage fluorescence increase after 12 hour incubation of 30-50 μM substrate, 100 mM phosphate buffer (pH 7), 250 μM NAD(P)H, and 100 nM enzyme. Substrates 1, 2, 3, and 4 monitored at λexc=340 nm, λem=440 nm. Substrates 5, 6, and 7 monitored at λexc=440 nm, λem=510 nm. 3HSD, 3α-hydroxysteroid dehydrogenase (PT, Pseudomonas testosteroni), HLAD, horse liver alcohol dehydrogenase, TBAD, Thermoanaerobium brockii alcohol dehydrogenase, BS 12HSD, Bacillus sp. 12α-hydroxysteroid dehydrogenase, ABAD, amyloid-β binding alcohol dehydrogenase (human), GDH, glycerol dehydrogenase, YADH, yeast alcohol dehydrogenase, LDH, lactate dehydrogenase.
(§2) Probes 1-7 (see FIG. 3) were subsequently tested against a collection of dehydrogenases in the presence of NAD(P)H; the extent of reduction was assessed by the measurement of fluorescence intensity at the emission maximum of each probe (FIG. 4). This assay included enzymes from two major oxidoreductase superfamilies, the short chain alcohol dehydrogenases (SDR) and the aldo-keto reductases (AKR), ranging from bacterial to mammalian and human enzymes.
(§3) Horse Liver alcohol dehydrogenase (Lot Number 51K7520), Thermoanaerobium brockii NADP^+ dependent alcohol dehydrogenase (Lot Number 033K4093), Pseudomonas testosteroni 3α-hydroxysteroid dehydrogenase (Lot Number 053K8624), and Bacillus sphaericus 12α-hydroxysteroid dehydrogenase (Lot Number 70K16621) were purchased from Sigma (St. Louis, Mo.). Yeast alcohol dehydrogenase (Lot Number 93122920), glycerol dehydrogenase (Lot Number 92110122), (D)-lactate dehydrogenase (Lot Number 92419236), (L)-lactate dehydrogenase (Lot Number 92801821), NAD^+, NADP^+, NADH, and NADPH were purchased from Roche. Enzyme activity was confirmed by compliance to supplier's quality control assays prior to usage. Rat and human 3α-hydroxysteroid dehydrogenases were provided by Professor Trevor Penning (University of Pennsylvania School of Medicine) and human amyloid-β peptide binding alcohol dehydrogenase was supplied by Professor Shi Du Yan (Columbia University School for Physicians and Surgeons).
(§4) Enzymatic assays were performed in triplicate on selected fluorogenic substrates according to the following protocol. To each well of a FALCON 96-well black flat bottom plate was added (1) 40 μL of 500 mM potassium phosphate buffer pH 7.0, (2) 113 μL of double deionized water, (3) 25 μL of 2 mM NADH (except for Pseudomonas testosteroni 3α-hydroxysteroid dehydrogenase, rat 3α-hydroxysteroid dehydrogenase, and Thermoanaerobium brockii NADP^+ dependent alcohol dehydrogenase, in which cases 2 mM of NADPH was used), (4) 2 μL of a 3-5 mM solution of substrate in DMSO, and (5) 20 μL of a 40-50 μg/mL solution of enzyme. Reaction volumes were mixed thoroughly after addition of cofactor, substrate, and enzyme and allowed to react 12 hours at 25° C. Scanning of the 96-well plate was performed by the MicroMax 384 connected to a Jobin Yvon Fluorolog through F-3000 fiber optic cables.
(§5) Initial Screening with Fluorogenic Substrates: Screening of the first fluorogenic substrates for enzymatic activity has been described above. In short, 200 μL enzymatic assay volumes containing 100 mM potassium phosphate buffer (pH 7), 250 μM NAD(P)H cofactor, and 30-50 μM of ketones (1-7) were incubated for 12 hours on a black FALCON 96-well plate. Formation of the alcohol reduction product was determined by reading the fluorescence arising from excitation at the corresponding alcohol at either 340 nm (27-30) or 440 nm (31-33).

[3] = target: T2, rat 3α-hydroxysteroid dehydrogenase (Rattus norvegicus, UniProt P23457); test: as above; assay type: biochemical; settings: 12 hour incubation, 30-50 μM substrate, pH 7, 250 μM NAD(P)H
T2 construct: gift of Professor Trevor Penning (University of Pennsylvania School of Medicine)
T2 sequence (P23457 1-322): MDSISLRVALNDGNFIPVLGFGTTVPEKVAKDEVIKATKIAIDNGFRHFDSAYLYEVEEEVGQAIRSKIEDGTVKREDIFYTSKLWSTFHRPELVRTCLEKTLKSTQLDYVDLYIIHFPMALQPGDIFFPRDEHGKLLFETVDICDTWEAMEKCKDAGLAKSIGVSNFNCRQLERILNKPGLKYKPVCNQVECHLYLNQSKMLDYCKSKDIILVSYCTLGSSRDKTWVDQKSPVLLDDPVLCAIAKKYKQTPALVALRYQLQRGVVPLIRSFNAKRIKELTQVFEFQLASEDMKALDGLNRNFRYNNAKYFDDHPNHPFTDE
Description: as §1, §2, §3, §4, §5

AKR1C3 = target: T3, AKR1C3 (Homo sapiens, UniProt P42330); test: Steady state kinetic parameters of fluorogenic substrates with purified AKR1C isozymes; assay type: biochemical
T3 construct: gift of Professor Trevor Penning (University of Pennsylvania School of Medicine)
T3 sequence (P42330 1-323): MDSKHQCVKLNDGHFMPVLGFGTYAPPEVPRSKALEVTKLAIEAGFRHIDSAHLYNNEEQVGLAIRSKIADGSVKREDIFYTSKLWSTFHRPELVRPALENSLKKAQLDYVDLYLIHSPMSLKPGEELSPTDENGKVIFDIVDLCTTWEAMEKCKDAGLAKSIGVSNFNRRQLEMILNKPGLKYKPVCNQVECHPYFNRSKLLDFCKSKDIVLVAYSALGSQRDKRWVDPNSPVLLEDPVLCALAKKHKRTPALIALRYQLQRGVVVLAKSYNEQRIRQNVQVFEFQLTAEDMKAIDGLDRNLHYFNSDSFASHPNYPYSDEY
Description: The initial reaction rates were used to derive standard kinetic parameters (kcat and Km, Materials and Methods).
Substrate tolerance of AKR1Cs: Isozyme Activity with 5a-5i: Activity of the second generation of fluorogenic substrates with the AKR1C isozymes was determined as follows. […] After mixing the aqueous components thoroughly, 20 μL of acetonitrile was added as a cosolvent and mixed well. […] 4 μL of undiluted AKR1C (provided generously by the Penning lab at concentrations of 2.5 mg/mL) were then added to the cuvette for a total of 10 μg purified enzyme in the 1 mL assay volume. Fluorescence arising from the respective alcohol reduction product was then monitored over the course of 5-10 minutes.
Binding constant and catalytic rates (Km and kcat) of the second generation of fluorogenic substrates was determined as follows. […] After mixing the aqueous components thoroughly, 20 μL of acetonitrile was added as a cosolvent and mixed well. […] To initiate the reduction, 2 or 4 μL of diluted AKR1C (1:2 to 1:100, depending on the kinetics of a particular isozyme's reduction of a substrate) was then added to the cuvette. Fluorescence arising from the respective alcohol reduction product was then monitored over the course of 3 minutes (Excitation and emission band pass slits both at 4 nm, lamp 700 V, λexc 410 nm, λem 510).
initial rate=[nst×(Ft−F0)/(Fst)]/t (1)
where Ft and F0 represent the fluorescence at times t and 0 minutes, nst is the nanomoles of product in a known concentration of product, and Fst is the fluorescence resulting from nst of product. […] Reported enzymatic kinetic parameters are the average of three independent determinations from three different preparations of substrate and enzyme.

[4] = isozyme 1C3, potassium phosphate buffer pH 6, NADPH, fluorimetric

- solubility [1]: > 1000 µM
Structure (SMILES): COc1ccc2cc(-c3ccc(C(C)=O)cc3)c(=O)oc2c1 [VB11]

Structure (SMILES): O=C(O)c1ccccc1Nc1cccc(C(F)(F)F)c1 [flufenamic acid, reference compound]
- effect on reduction of 5c by the cytoplasmic extract (HepG2 cell fractions; 100 μM flufenamic acid, HepG2 cytoplasmic extract): suppressed

Structure (SMILES): CC(=O)c1ccc(-c2cc3cc4c5c(c3oc2=O)CCCN5CCC4)cc1 [compound 6, 9-(4-Acetyl-phenyl)-2,3,5,6-tetrahydro-1H,4H-11-oxa-3a-aza-benzo[de]anthracen-10-one]
- reduction of probe (fluorescence increase) [2]: good conversion
- reduction of probe (fluorescence increase) [3]: good conversion

- Km (AKR1C3; AKR1C3, value of the text): 0.051 µM
- Kcat (AKR1C3; [4]): 0.0988 s⁻¹
- Km (AKR1C3; [4]): 0.05 µM
- reduction in cytoplasmic (cytosolic) fraction (HepG2 cell fractions; HepG2 cytosolic fraction, 1 mM NADPH, 80 μg protein/mL, one hour incubation): enzymatic reduction occurred
- stability / reduction in microsomal fraction (HepG2 cell fractions; HepG2 microsomes, 1 mM NADPH, 80 μg protein/mL, one hour incubation): stable in the presence of microsomes
Structure (SMILES): O=C(c1ccccc1)c1cc(=O)oc2c3c4c(cc12)CCCN4CCC3 [5c, 8-Benzoyl-2,3,5,6-tetrahydro-1H,4H-11-oxa-3a-aza-benzo[de]anthracen-10-one]

Structure (SMILES): CC(=O)c1ccc(-c2cc3cc4c5c(c3oc2=O)CCCN5CCC4)cc1 [VB35]
- solubility [1]: > 1000 µM

From patent publication US20100048604A1, “Ligands for Aldoketoreductases” (priority 2004, published 2010)
